Test results from ChEMBL document CHEMBL5120749, “Human estrogen receptor α antagonists, part 2: Synthesis driven by rational design, in vitro antiproliferative, and in vivo anticancer evaluation of innovative coumarin-related antiestrogens as breast cancer suppressants” (Eur J Med Chem, 2022).

How the values were obtained:
[1] = target: T1, Estrogen receptor (Homo sapiens, UniProt P03372)
T1 sequence (P03372 whole entry): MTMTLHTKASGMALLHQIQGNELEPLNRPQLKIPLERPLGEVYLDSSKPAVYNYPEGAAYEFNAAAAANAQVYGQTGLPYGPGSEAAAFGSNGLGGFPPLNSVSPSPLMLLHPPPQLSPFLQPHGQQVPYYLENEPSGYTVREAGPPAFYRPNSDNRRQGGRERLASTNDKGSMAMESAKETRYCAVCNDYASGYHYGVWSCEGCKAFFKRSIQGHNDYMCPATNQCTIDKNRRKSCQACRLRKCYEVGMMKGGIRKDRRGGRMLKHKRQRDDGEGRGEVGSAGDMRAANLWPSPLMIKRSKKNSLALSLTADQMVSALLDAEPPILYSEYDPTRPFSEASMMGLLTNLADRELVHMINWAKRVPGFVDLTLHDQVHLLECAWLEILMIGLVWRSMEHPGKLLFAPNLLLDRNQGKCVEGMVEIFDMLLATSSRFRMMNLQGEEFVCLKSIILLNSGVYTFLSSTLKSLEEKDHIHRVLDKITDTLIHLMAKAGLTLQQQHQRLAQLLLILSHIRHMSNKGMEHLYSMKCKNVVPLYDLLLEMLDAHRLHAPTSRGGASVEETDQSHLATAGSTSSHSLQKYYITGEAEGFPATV
Description: (§1) Antagonist activity at ERalpha (unknown origin)

[2] = target: T2, Estrogen receptor beta (Homo sapiens, UniProt Q92731)
T2 sequence (Q92731 whole entry): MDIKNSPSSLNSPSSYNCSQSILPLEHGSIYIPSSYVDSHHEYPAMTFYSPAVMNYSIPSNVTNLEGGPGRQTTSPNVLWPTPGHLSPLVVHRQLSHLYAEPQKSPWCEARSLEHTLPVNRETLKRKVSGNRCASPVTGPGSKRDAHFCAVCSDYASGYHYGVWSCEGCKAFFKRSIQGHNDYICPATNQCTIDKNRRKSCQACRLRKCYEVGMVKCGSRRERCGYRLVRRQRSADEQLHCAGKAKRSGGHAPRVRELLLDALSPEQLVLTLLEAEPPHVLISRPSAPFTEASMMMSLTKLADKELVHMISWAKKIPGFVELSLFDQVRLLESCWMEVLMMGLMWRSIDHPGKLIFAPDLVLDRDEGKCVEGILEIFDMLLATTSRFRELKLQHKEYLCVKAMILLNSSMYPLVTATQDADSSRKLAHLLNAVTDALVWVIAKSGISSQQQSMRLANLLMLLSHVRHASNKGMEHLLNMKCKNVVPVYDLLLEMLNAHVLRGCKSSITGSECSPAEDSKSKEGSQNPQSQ
Description: (§2) Antagonist activity at ERbeta (unknown origin)

[3] = target: T1, Estrogen receptor; remark: listed apart in the source
Description: Antagonist activity at ERalpha in human MCF7 cells assessed as downregulation of ERalpha

[4] = target: T3, Progesterone receptor (Homo sapiens, UniProt P06401)
T3 sequence (P06401 whole entry): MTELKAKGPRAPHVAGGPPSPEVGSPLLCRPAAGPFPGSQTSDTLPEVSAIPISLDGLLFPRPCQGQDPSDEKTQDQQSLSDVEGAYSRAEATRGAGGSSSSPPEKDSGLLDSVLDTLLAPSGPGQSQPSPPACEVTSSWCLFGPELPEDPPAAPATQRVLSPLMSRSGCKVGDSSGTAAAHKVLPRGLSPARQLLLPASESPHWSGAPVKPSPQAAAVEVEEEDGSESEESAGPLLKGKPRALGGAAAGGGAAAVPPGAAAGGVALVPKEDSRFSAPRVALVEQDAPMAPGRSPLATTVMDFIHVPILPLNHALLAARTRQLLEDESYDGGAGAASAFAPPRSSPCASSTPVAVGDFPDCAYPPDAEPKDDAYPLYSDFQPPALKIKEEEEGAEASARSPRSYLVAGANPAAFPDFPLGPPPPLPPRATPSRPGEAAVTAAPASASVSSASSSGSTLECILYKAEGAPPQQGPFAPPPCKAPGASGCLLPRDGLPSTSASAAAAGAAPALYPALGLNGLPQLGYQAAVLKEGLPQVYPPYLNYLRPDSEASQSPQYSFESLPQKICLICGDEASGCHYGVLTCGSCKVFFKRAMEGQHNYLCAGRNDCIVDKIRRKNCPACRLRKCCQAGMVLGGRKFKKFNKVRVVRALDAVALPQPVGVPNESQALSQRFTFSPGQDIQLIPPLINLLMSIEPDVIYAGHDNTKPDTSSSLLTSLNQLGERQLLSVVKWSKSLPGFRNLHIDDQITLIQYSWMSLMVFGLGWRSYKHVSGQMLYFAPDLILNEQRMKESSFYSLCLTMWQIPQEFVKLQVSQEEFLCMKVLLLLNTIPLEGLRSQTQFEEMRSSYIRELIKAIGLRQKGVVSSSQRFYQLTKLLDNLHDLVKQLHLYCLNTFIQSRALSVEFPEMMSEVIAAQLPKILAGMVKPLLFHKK
Description: Antagonist activity at progesterone receptor in human MCF7 cells

[5] = target: T4, Estrogen receptor (Homo sapiens) (UniProt P03372); conditions: filed as antagonist
T4 sequence (whole entry): T1 sequence (P03372 whole entry)
Description: as §1

[6] = target: T2, Estrogen receptor beta; conditions: filed as antagonist
Description: as §2

[7] = target: T4, Estrogen receptor (Homo sapiens); conditions: filed as antagonist; remark: listed apart in the source
Description: Relative binding affinity to ERalpha (unknown origin)

[8] = target: T2, Estrogen receptor beta; conditions: filed as antagonist; remark: listed apart in the source
Description: Relative binding affinity to ERbeta (unknown origin)

[9] = test system: MCF7; experiment: cells; conditions: Homo sapiens
Description: Antiproliferative activity against human MCF7 cells

[10] = test system: MDA-MB-231; experiment: cells; conditions: Homo sapiens
Description: Antiproliferative activity against human MDA-MB-231 cells

[11] = test system: MRC5; experiment: cells; conditions: Homo sapiens
Description: Antiproliferative activity against human MRC5 cells

[12] = test system: Ishikawa; experiment: cells; conditions: Homo sapiens
Description: Antiproliferative activity against human Ishikawa cells

[13] = in vivo; conditions: rat, po, 5 mg/kg
[14] = in vivo; conditions: rat, po, 50 mg/kg
[15] = physchem; conditions: octanol/water
Description: (§3) Lipophilicity, logD of the compound by shake-flask method

[16] = octanol/water
Description: as §3

Structure (SMILES) | IC50 [1] [nM] | IC50 [2] [nM] | IC50 [3] [nM] | IC50 [4] [nM] | Ka [5] [nM] | Ka [6] [nM] | log(RBA) [7] | log(RBA) [8] | IC50 [9] [nM] | IC50 [10] [nM] | IC50 [11] [nM] | IC50 [12] [nM] | bioavailability [13] [%] | bioavailability [14] [%] | logD [15] | logD [16]
Nc1ccc(-c2c(C(=O)c3ccc(OCCNS(=O)(=O)O)cc3)c3ccc(O)cc3oc2=O)cc1 | 0.39 | 79.5 | > 100 | > 100 | 0.08 | 44.7 | 2.36 | 0.05 | 0.45 | 75.7 | > 100 | 0.54 | 91 | 94 | 1.78 | 
O=C(COCN1CCCCC1)CN1Nc2c(c(=O)oc3cc(O)ccc23)-c2ccc(O)cc21 | 375 | 36.8 |  |  | 84.3 | 20.7 | -0.63 | 0.38 |  |  |  |  |  |  |  | 
Nc1ccc(-c2c(C(=O)c3ccc(OCCN4CC(C(=O)O)=CCC4=O)cc3)c3ccc(O)cc3[nH]c2=O)cc1 | 37 | 72.5 | > 100 | > 100 | 0.04 | 40.7 | 2.38 | 0.09 | 0.44 | 77 | > 100 | 0.41 | 88 | 91 | 1.86 | 
Cc1cc(C(=O)C2=C(c3ccc(O)cc3)COc3cc(O)ccc32)ccc1OCCN1Cc2cccnc2C1 | 1.13 |  | > 100 | > 100 |  |  |  |  |  |  |  |  |  |  |  | 
Cc1cc(N2Nc3cc(O)ccc3-c3c2c2ccc(O)cc2oc3=O)ccc1OCCN1CCC=C(C(=O)O)C1 |  | 98.2 |  | > 100 |  |  |  |  |  |  |  |  |  |  |  | 
CC(CN1CCCC2CCCNC21)OCC(=O)N1Nc2cc(O)ccc2C2COc3cc(O)ccc3C21 (configuration not stated) | 0.67 | 67.1 | > 100 | > 100 | 0.15 | 37.7 | 2.12 | 0.12 | 0.73 | 51.5 | > 100 | 0.77 |  |  |  | 
Cc1cc(N2Nc3c(c(=O)oc4cc(O)ccc34)-c3ccc(O)cc32)ccc1OCCN1CCC=C(C(=O)O)C1 | 144 | 45.4 |  |  | 32.3 | 25.5 | -0.21 | 0.29 |  |  |  |  |  |  |  | 
CNCCOc1ccc(N2Nc3cc(O)ccc3-c3c2c2ccc(O)cc2oc3=O)cc1 | 0.33 |  | > 100 | > 100 |  |  |  |  |  |  |  |  |  |  |  | 
CC(CN1CCCC2CCCNC21)OCC(=O)N1NC2c3ccc(O)cc3OCC2c2ccc(O)cc21 (configuration not stated) | 168 |  |  |  |  |  |  |  |  |  |  |  |  |  |  | 
O=C(c1ccc(OCCN2C(=O)CCC2=O)cc1)c1c(-c2ccc(O)cc2)oc(=O)c2cc(O)ccc12 | 0.75 | 5730 | > 100 | > 100 | 0.17 | 32.2 | 2.07 | 0.19 | 0.93 | 41.5 | > 100 | 0.89 |  |  |  | 
O=C(c1ccc(OCCN2C=Cc3ccccc3C2)cc1)c1c(-c2ccc(O)cc2)oc(=O)c2cc(O)ccc12 | 0.71 | 42.7 | > 100 | > 100 | 0.16 | 24 | 2.1 | 0.32 | 0.8 | 41.7 | > 100 | 0.76 |  |  |  | 
Cc1cc(C(=O)CNc2c(-c3ccc(O)cc3)c(=O)oc3cc(O)ccc23)ccc1OCCN1CCC=C(C(=O)O)C1 | 0.19 | 102 | > 100 | > 100 | 0.04 | 57.6 | 2.67 | -0.06 | 0.25 | 91.8 | > 100 | 0.34 | 91 | 96 | 2.14 | 
CNCCOc1ccc(N2Nc3c(c(=O)oc4cc(O)ccc34)-c3ccc(O)cc32)cc1 | 161 | 28.8 |  |  | 36.1 | 16.2 | -0.26 | 0.49 |  |  |  |  |  |  |  | 
O=C(COCN1CCCCC1)CN1Nc2cc(O)ccc2-c2c1c1ccc(O)cc1oc2=O | 0.76 | 86.4 | > 100 | > 100 | 0.17 | 48.5 | 2.07 | 0.01 | 1.03 | 41.8 | > 100 | 0.96 |  |  |  | 
CC/C(=C(\c1ccc(O)cc1)c1ccc(OCCN(C)C)cc1)c1ccccc1 [AFIMOXIFENE] |  |  |  | > 100 |  |  |  |  | 1.2 | 36.8 | > 100 | 1.27 | 87 | 94 | 3.62 | 
Cc1cc(C(=O)C2=C(c3ccc(O)cc3)COc3cc(O)ccc32)ccc1OCCN1C=Cc2cccnc2C1 | 1.05 |  | > 100 | > 100 |  |  |  |  |  |  |  |  |  |  |  | 
Nc1ccc(-c2c(C(=O)c3ccc(OCCN4CC(C(=O)O)=CCC4=O)cc3)c3ccc(O)cc3oc2=O)cc1 | 39 |  | > 100 | > 100 |  |  |  |  |  |  |  |  |  |  |  | 
O=C(c1ccc(OCCN2CCCCC2)cc1)c1c(-c2ccc(O)cc2)sc2cc(O)ccc12 [RALOXIFENE] |  |  |  |  |  | 41.2 |  | 0.08 | 0.89 | 92.3 |  | 0.94 | 93 | 96 |  | 2.37
